Data as given in PMC8347608, “Natural Compounds Isolated from Stachybotrys chartarum Are Potent Inhibitors of Human Protein Kinase CK2” (Molecules, 2021).
Like-named read-outs stand apart in the source and are kept apart here.

How the values were obtained:
[1] = molecular target: human recombinant CK2 holoenzyme (Homo sapiens, UniProt P68400); assay: CE-based CK2 activity assay (substrate peptide RRRDDDSDDD); assay type: biochemical
[2] = system: A431 cells; assay: IncuCyte live-cell imaging, cell growth (confluence); assay type: cell-based, human; conditions: 48 h
[3] = system: MCF7 cells; assay: MTT cell viability assay; conditions: 100 µM, 48 h
[4] = system: A431 cells; assay: MTT cell viability assay; conditions: 48 h; for reduction of cell viability: 10 µM, data not shown
[5] = system: A427 cells; assay: MTT cell viability assay; conditions: 48 h; for reduction of cell viability: 10 µM, data not shown
[6] = system: A427 cells; assay: IncuCyte live-cell imaging, cell growth (confluence); assay type: cell-based, human; conditions: 48 h
[7] = system: MCF7 cells
[8] = system: MCF7 NucLight Green cells; assay: IncuCyte live-cell imaging, cell growth (confluence); assay type: cell-based, human; conditions: 48 h
[9] = in vitro; conditions: human
[10] = system: MCF7 NucLight Green cells; assay: EdU cell proliferation assay; assay type: cell-based, human; conditions: for proliferating cells relative to control: 24 h incubation
[11] = molecular target: T1, LDH-5 from rabbit muscle (Oryctolagus cuniculus, UniProt P13491); assay: LDH assay (NADH absorption at 340 nm); assay type: biochemical; conditions: 10 µM compound; data not shown
T1 construct: LDH-5 from rabbit muscle; purchased Roche Diagnostics GmbH, Mannheim, Germany; host or cells: rabbit muscle
Description: A reaction of aldehyde groups appearing at position 4´and 5´ of the phenylspirodrimanes such as acetoxystachybotrydial acetate (Figure 1) with amino acids in proteins has been reported before. The ATP dependency of the IC50 value as shown above is a clear indicator that the interaction between the compound and CK2 seems to be specific and is not due to any non-specific reaction of the dialdehydes of phenylspirodrimanes with amines in a protein. Finally, to rule out this aspect, the inhibitory effect of acetoxystachybotrydial acetate on lactate dehydrogenase (LDH) was determined. Even at a concentration of 10 µM, no inhibition of LDH by acetoxystachybotrydial acetate was observed, indicating no non-specific interaction of acetoxystachybotrydial acetate by coupling to protein amines (data not shown).
For the determination of enzymatic activity of lactate dehydrogenase (LDH), 0.25 µg of LDH-5 from rabbit muscle (Roche Diagnostics GmbH, Mannheim, Germany) was incubated in phosphate buffered saline (PBS) containing 0.25 mM nicotinamide adenine dinucleotide (NADH) and 0.625 mM pyruvate in a total volume of 1 mL at room temperature. Absorption at 340 nm was monitored every 5 s within 5 min. For the determination of inhibitory activity of phenylspirodrimanes towards LDH, acetoxystachybotrydial acetate was added in a final concentration of 10 µM; 0.1% DMSO served as a control.

[12] = MTT cell viability assay; conditions: human, cell viability (% of control)
[13] = system: MCF7 cells; set-up: method as in PMID 30965682; conditions: other human CK2 inhibitor, compared with MCF7 value; cited from earlier work
[14] = read-out: % Inhibition at 10 µM
[15] = nine concentrations 0.001-100 µM, mean ± SD, three independent experiments, read-out: IC50
[16] = 10 µM compound, relative to DMSO control, read-out: % Inhibition at 10 µM

Chain of human recombinant CK2 holoenzyme (P68400 whole entry): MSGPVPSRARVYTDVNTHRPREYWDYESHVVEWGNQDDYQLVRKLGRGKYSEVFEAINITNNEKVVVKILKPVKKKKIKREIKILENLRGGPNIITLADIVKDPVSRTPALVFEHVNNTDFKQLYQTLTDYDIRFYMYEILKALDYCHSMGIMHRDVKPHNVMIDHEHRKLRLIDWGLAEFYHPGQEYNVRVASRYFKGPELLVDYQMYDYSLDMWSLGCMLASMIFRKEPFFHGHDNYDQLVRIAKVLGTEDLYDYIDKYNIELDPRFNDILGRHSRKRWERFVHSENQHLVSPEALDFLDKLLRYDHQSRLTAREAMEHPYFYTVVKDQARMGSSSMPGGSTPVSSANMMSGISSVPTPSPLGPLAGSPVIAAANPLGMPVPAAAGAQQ
Chain of human recombinant CK2 holoenzyme (P67870 whole entry partner): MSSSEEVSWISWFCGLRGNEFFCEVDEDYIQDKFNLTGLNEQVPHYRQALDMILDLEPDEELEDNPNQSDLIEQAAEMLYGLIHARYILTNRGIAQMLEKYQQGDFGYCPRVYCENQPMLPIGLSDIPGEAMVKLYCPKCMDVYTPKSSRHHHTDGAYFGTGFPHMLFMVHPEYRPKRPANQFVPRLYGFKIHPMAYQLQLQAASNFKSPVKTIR

`CC(=O)O[C@@H]1CC[C@@]2(C)[C@@H](CC[C@@H](C)[C@]23Cc2c(O)cc4c(c2O3)CNC4=O)C1(C)C` [Stachybotrylactam acetate] showed an inhibition at 10 µM [1, 14] of 44%.
With `CC(=O)OC1CCC2(C)C(CCC(C)C23Cc2c(O)cc(C=O)c(C=O)c2O3)C1(C)C` (centres unmarked) [Stachybotrydial acetate] the “cell growth (confluence)” value ([2]; 1 µM) was “no effect”, the “cell growth (confluence)” value ([2]; 100 µM) was “completely blocked” and the “reduction of cell viability (by %)” value [3] was 86%. For the same molecule, the “reduction of cell viability” value [4] was “not significant”, the “reduction of cell viability (by %)” value ([4]; 100 µM) was 93% and the IC50 [1, 15] was 690 nM. For the same molecule, the “reduction of cell viability” value [5] was “not significant”, the “reduction of cell viability (by %)” value ([5]; 100 µM) was 82% and the “cell growth (confluence)” value ([6]; 1 µM) was “no effect”. The “cell growth (confluence)” value ([6]; 100 µM) was “completely blocked”, the “cell viability (% of control)” value ([7]; 1 µM) was “increased” and the “cell growth (confluence)” value ([8]; 1 µM) was “no effect”. The “cell growth (confluence)” value ([8]; 100 µM) was “completely blocked”.
For `CC(=O)Oc1cc(O)c2c(c1C=O)O[C@@](C)(CC/C=C(\C)CCC=C(C)C)C=C2` [Stachybotrychromene B], the inhibition at 10 µM [1, 14] was 47%.
Molecule `C[C@@H]1CC[C@H]2C(C)(C)[C@H](O)CC[C@]2(C)[C@@]12Cc1c(O)cc(C=O)c(C=O)c1O2` [Stachybotrydial] has an IC50 [1, 15] of 4430 nM.
With `CC(C)=CCCC(C)=CCCC1(C)C=Cc2c(O)cc(C=O)c(C=O)c2O1` (centres unmarked) [Stachybotrychromene C] the “cell growth (confluence)” value ([2]; 1 µM) was “no inhibition of growth”, the “cell growth (confluence)” value ([2]; 100 µM) was “no other cell line was affected” and the viability at 48 h, 1 µM [9] was 155%. The “reduction of cell viability (by %)” value ([4]; 1 µM) was 27%, the “reduction of cell viability” value [4] was “Almost no further reduction” and the “increase of inhibitory effect on cell viability compared with 1 µM” value ([4]; 100 µM) was roughly 10%. For the same molecule, the IC50 [1, 15] was 320 nM, the “reduction of cell viability (by %)” value ([5]; 1 µM) was 32% and the “reduction of cell viability” value [5] was “Almost no further reduction”. The “increase of inhibitory effect on cell viability compared with 1 µM” value ([5]; 100 µM) was roughly 10%, the “cell growth (confluence)” value ([6]; 1 µM) was “no inhibition of growth” and the “cell growth (confluence)” value ([6]; 100 µM) was “no other cell line was affected”. For the same molecule, the “proliferating cells relative to control” value ([10]; 100 µM) was “negligible effects”, the “cell viability (% of control)” value ([7]; 100 µM) was “not decreased” and the “cell growth (confluence)” value ([8]; 1 µM) was “no inhibition of growth”. The “cell growth (confluence)” value ([8]; 100 µM) was “reduce the growth”.
For `CC(=O)OC1CC2(C)C(CCC(C)C23Cc2c(O)cc(C=O)c(C=O)c2O3)C(C)(C)C1OC(C)=O` (centres unmarked) [Acetoxystachybotrydial acetate], the “cell growth (confluence)” value ([2]; 1 µM) was “completely blocked”, the “inhibition of LDH” value [11] was “no inhibition” and the IC50 [1] was 1860 nM. The Ki [1] was 1410 nM, the mode of inhibition [1] was “ATP competitive mode of inhibition” and the viability at 48 h, 1 µM ([12]; 1 µM) was 14%. For the same molecule, the viability at 48 h, 100 µM ([12]; 100 µM) was 12%, the “cell growth (confluence)” value ([6]; 1 µM) was “strongly impaired” and the “proliferating cells relative to control” value ([10]; 1 µM) was “Less than 1%”. The EC50 ([10]; Homo sapiens, MCF7, 24 h, read-out: EC50 inhibition of cell proliferation) was 390 nM, the “cell growth (confluence)” value ([8]; 1 µM) was “completely blocked” and the “total number of cells (phase contrast images)” value ([8]; 1 µM, compared with 1% DMSO control) was “strongly reduced”.
In the case of `Cc1cc(O)c2c(c1)C(=O)c1cc(O)cc(O)c1C2=O` [emodin, reference compound], the “proliferating cells relative to control” value ([10]; 1 µM) is reported as “no effect”, the “proliferating cells relative to control” value ([10]; 10 µM) is reported as 77% and the “proliferating cells relative to control” value ([10]; 100 µM) is reported as 5%.
Work on `C[C@@H]1CC[C@H]2C(C)(C)[C@H](O)CC[C@]2(C)[C@@]12Cc1c(O)cc(CO)c(C=O)c1O2` [L-671] yielded an inhibition at 10 µM [1, 16] of 42%.
Work on `C[C@@H]1CC[C@H]2C(C)(C)[C@H](O)CC[C@]2(C)[C@@]12Cc1c(O)cc3c(c1O2)CN(CCO)C3=O` [Stachybotryamide] yielded an inhibition at 10 µM [1, 14] of 21%.
`CC(C)=CCC/C(C)=C/CC[C@@]1(C)C=Cc2c(O)cc(C)c(C=O)c2O1` [Stachybotrychromene A] gave an inhibition at 10 µM [1, 14] of 26%.
`CC(=O)O[C@@H]1[C@H](OC(C)=O)C[C@@]2(C)[C@@H](CC[C@@H](C)[C@]23Cc2c(O)cc(CO)c(C=O)c2O3)C1(C)C` [Stachybonoid D] showed an inhibition at 10 µM [1, 16] of 47%.
In the case of `COC1=CC(=O)c2c(c(O)c3oc4cc(OC)cc(C)c4c(=O)c3c2O)C1=O` [bikaverin], the EC50 [13] is listed as 1970 nM.
With `CC(=O)O[C@@H]1CC[C@@]2(C)[C@@H](CC[C@@H](C)[C@]23Cc2c(O)cc(CO)c(C=O)c2O3)C1(C)C` [Stachybotrysin B] the “% Inhibition at 10 µM” value [1] was 50%, the IC50 [1, 15] was 13400 nM and the inhibition at 10 µM ([1]; read-out: % Inhibition at 10 µM, 10 µM compound, relative to DMSO control) was greater than 50%.
For `CC(=O)O[C@@H]1[C@H](O)C[C@@]2(C)[C@@H](CC[C@@H](C)[C@]23Cc2c(O)cc(CO)c(C=O)c2O3)C1(C)C` [Stachybotrysin C], the inhibition at 10 µM [1, 14] was 37%.
